{"source": "patent US4244970A", "about": "“Method of treating inflammation” (Forsyth Dental Infirmary for Children, priority 1979, dated 1981)", "molecular_target": "prostaglandin synthetase (Ovis aries, UniProt P05979)", "sequence (P05979 25-600)": "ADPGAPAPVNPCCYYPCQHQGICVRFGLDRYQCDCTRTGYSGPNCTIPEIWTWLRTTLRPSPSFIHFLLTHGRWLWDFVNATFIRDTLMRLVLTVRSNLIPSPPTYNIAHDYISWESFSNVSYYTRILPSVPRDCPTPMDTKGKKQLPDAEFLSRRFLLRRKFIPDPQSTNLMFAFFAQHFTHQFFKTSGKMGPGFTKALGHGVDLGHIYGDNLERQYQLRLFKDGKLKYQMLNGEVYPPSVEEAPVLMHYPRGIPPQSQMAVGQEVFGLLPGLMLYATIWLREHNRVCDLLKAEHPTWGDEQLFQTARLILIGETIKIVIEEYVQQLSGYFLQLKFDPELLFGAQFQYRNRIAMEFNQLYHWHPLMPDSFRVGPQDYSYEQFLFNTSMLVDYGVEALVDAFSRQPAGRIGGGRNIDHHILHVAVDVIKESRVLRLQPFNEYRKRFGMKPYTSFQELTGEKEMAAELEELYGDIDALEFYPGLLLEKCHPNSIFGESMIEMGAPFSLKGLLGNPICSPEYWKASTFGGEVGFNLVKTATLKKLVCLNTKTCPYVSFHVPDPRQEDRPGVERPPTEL", "test": "Prostaglandin synthetase inhibition, sheep vesicular gland microsomal preparation (oxygen electrode)", "format": "biochemical", "settings": "sheep vesicular gland microsomes; 0.1 M Tris HCl pH 8.0; inhibitor added 1 minute before arachidonate; read-out: [I]50, concentration of an inhibitor that reduced prostaglandin synthesis by 50%", "experimental": "Prostaglandin synthetase activity was determined by following oxygen tension in a closed reaction chamber using a Clark-type oxygen electrode. For each assay 2.9 ml of 0.1 M Tris HCl buffer, pH 8.0, 10 ul of 0.2 M phenol, and 50 ul of enzyme suspension (2.5 mg microsomal preparation) were added to the reaction chamber. Ten ul of inhibitor in ethanol was added 1 minute prior to initiation of the reaction. The reaction was initiated by addition of 10 ul of 3.6 mM arachidonate solution. The concentration of an inhibitor that reduced prostaglandin synthesis by 50% ([I]50) was determined from plots of activity vs log concentration of inhibitor."}
{"compound": "O=C(c1ccccc1)c1ccccc1O", "note": "[2-hydroxybenzophenone]", "values": [{"measurement": "IC50", "value": 3.8, "unit": "µM"}]}
